From patent US9717243B2, “Piperidinecarboxylic acid derivatives as fungicides” (priority 2013, dated 2017) come the findings set out here.

This data set is described as follows: LogP by HPLC on reversed phase columns (EEC directive 79/831 Annex V.A8). In kind it is physicochemical. The procedure: Calibration was done with straight-chain alkan2-ones (with 3 to 16 carbon atoms) with known LogP values (measurement of LogP values using retention times with linear interpolation between successive alkanones). Lambda-max-values were determined using UV-spectra from 200 nm to 400 nm and the peak values of the chromatographic signals.

The mark [1] stands for this setting: Table 1, compounds of formula (I), LC-UV, acidic range, 0.1% formic acid in water and acetonitrile as eluent.

Where two headings read alike, the source gives them in different places.

With `CC(C)(C)OC(=O)C1(C#N)CCN(C(=O)Nc2ccccc2)CC1` [IV-20], the “Log P[a]” value was determined as 2.82.

In the case of `COC(=O)C1(C(N)=S)CCN(C(=O)Nc2cc(C(F)(F)F)nn2C)CC1` [II-19], the “Log P[a]” value is reported as 1.74.

As to `CC(C)OC(=O)C1(C(N)=S)CCN(C(=O)Cn2nc(C(F)F)cc2C(F)F)CC1` [II-9], the “Log P[a]” value was 2.52.

Turning to `Cn1nc(C(F)F)cc1NC(=O)Oc1ccccc1` [phenyl [3-(difluoromethyl)-1-methyl-1H-pyrazol-5-yl]carbamate], the chromatographic logP (pH 2.7, synthesis intermediates in preparation examples, read-out: LogP (pH 2.7)) is 2.18.

`CC(C)=CCN(C)C(=O)C1(C#N)CCN(C(=O)Nc2ccccc2)CC1` [IV-41]: the “Log P[a]” value was determined as 2.61.

For the compound `CC(C)=CCN(C)C(=O)C1(C#N)CCN(C(=O)Nc2ccc(F)cc2)CC1` [IV-40], the “Log P[a]” value was determined as 2.71.

With `CCC(C)NC(=O)C1(C#N)CCN(C(=O)Cc2ccccc2)CC1` (centres unmarked) [IV-38], the “Log P[a]” value came to 2.08.

`CCOC(=O)C1(c2nc(C3=NOC(c4ccccc4OS(C)(=O)=O)C3)cs2)CCN(C(=O)Cn2nc(C(F)F)cc2C(F)F)CC1` (centres unmarked) [Example I-26]: the “Log P[a]” value stood at 3.51.

Turning to `CSCCOC(=O)C1(c2nc(C3=NOC(c4c(Cl)cccc4OS(C)(=O)=O)C3)cs2)CCN(C(=O)Cn2nc(C(F)F)cc2C(F)F)CC1` (centres unmarked) [Example I-47], the “Log P[a]” value is 3.85.

As to `O=C(Cn1nc(C(F)F)cc1C(F)F)N1CCC(C(=O)OCc2ccccc2)(c2nc(C3=NOC(c4ccccc4)C3)cs2)CC1` (centres unmarked) [Example I-38], the “Log P[a]” value came to 4.26.

Regarding `COC(=O)C1(C#N)CCN(C(=O)Cn2nc(C(F)F)cc2C)CC1` [IV-9], the “Log P[a]” value was found to be 1.89.

Regarding `C#CCOc1ccccc1C1CC(c2csc(C3(C(=O)OC)CCN(C(=O)Nc4cn(C)nc4C(F)F)CC3)n2)=NO1` (centres unmarked) [Example I-20], the “Log P[a]” value turned out to be 2.88.

Turning to `CC(C)=CCN(C)C(=O)C1(C#N)CCN(C(=O)Nc2ccc(Cl)cc2)CC1` [IV-46], the “Log P[a]” value worked out at 3.03.

In the case of `COC(=O)C1(c2nc(C3=NOC(c4ccccc4OS(C)(=O)=O)C3)cs2)CCN(C(=O)Cn2nc(C(F)F)cc2C)CC1` (centres unmarked) [Example I-64], the “Log P[a]” value amounted to 2.96.

As for `COC(=O)C1(C#N)CCN(C(=O)Nc2cc(C)ccc2C)CC1` [IV-19], the “Log P[a]” value came to 2.26.

On to `COC(=O)C1(c2nc(C3=NOC(c4c(Cl)cccc4OS(C)(=O)=O)C3)cs2)CCN(C(=O)Nc2cc(C(F)F)nn2C)CC1` (centres unmarked) [Example I-12, methyl 4-[4-(5-{2-chloro-6-[(methylsulfonyl)oxy]phenyl}-4,5-dihydro-1,2-oxazol-3-yl)-1,3-thiazol-2-yl]-1-{[3-(difluoromethyl)-1-methyl-1H-pyrazol-5-yl]carbamoyl}piperidine-4-carboxylate], for which the chromatographic logP (Table 1, compounds of formula (I), LC-UV, acidic range, 0.1% formic acid in water and acetonitrile as eluent, read-out: Log P[a]) was found to be 2.84.

For `CCOC(=O)C1(c2nc(C3=NOC(c4c(F)cccc4F)C3)cs2)CCN(C(=O)Cn2nc(C(F)F)cc2C(F)F)CC1` (centres unmarked) [Example I-24], the “Log P[a]” value is recorded as 3.73.

Consider `COC(=O)C1(c2nc(C3=NOC(c4ccccc4-c4ccccc4)C3)cs2)CCN(C(=O)Cn2nc(C(F)F)cc2C)CC1` (centres unmarked) [Example I-61], for which, under setting [1], the “Log P[a]” value was determined as 4.09.

Turning to `CSCCOC(=O)C1(c2nc(C3=NOC(c4ccccc4-c4ccccc4)C3)cs2)CCN(C(=O)Cn2nc(C(F)F)cc2C(F)F)CC1` (centres unmarked) [Example I-48], the “Log P[a]” value under setting [1] came to 4.77.

`COC(=O)C1(C#N)CCN(C(=O)Nc2cc(C(F)F)nn2C)CC1` [IV-17, methyl 4-cyano-1-{[3-(difluoromethyl)-1-methyl-1H-pyrazol-5-yl]carbamoyl}piperidine-4-carboxylate]: the chromatographic logP (Table 2, compounds of formula (IV), LC-UV, acidic range, 0.1% formic acid in water and acetonitrile as eluent, read-out: Log P[a]) was 1.53.

In the case of `COC(=O)C1(c2nc(C3=NOC(c4ccccc4OS(C)(=O)=O)C3)cs2)CCN(C(=O)Nc2cn(C)nc2C(F)F)CC1` (centres unmarked) [Example I-19], the “Log P[a]” value was 2.53.

`CCC(C)NC(=O)C1(C#N)CCN(C(=O)Cc2ccc(Cl)cc2)CC1` (centres unmarked) [IV-37]: the “Log P[a]” value was 2.46.

Turning to `CC(C)(C)OC(=O)C1(C#N)CCN(C(=S)Nc2ccc(OC(F)(F)F)cc2)CC1` [IV-27], the “Log P[a]” value was 4.01.

As for `C#CCOc1ccccc1C1CC(c2csc(C3(C(=O)OC(C)C)CCN(C(=O)Cn4nc(C(F)F)cc4C(F)F)CC3)n2)=NO1` (centres unmarked) [Example I-33], the “Log P[a]” value was 4.14.

In the case of `COC(=O)C1(c2nc(C3=NOC(c4ccccc4)C3)cs2)CCN(C(=O)Cn2nc(C(F)F)cc2C(F)F)CC1` (centres unmarked) [Example I-5], the “Log P[a]” value came out at 3.48.

With `O=C(Cn1nc(C(F)F)cc1C(F)F)N1CCC(C(=O)OCc2ccccc2)(c2nc(C3=NOC(c4c(F)cccc4F)C3)cs2)CC1` (centres unmarked) [Example I-37], the “Log P[a]” value was 4.21.

Consider `COC(=O)C1(c2nc(C3=NOC(c4ccccc4-c4ccccc4)C3)cs2)CCN(C(=O)Cn2nc(C(F)F)cc2C(F)F)CC1` (centres unmarked) [Example I-2], for which the “Log P[a]” value under setting [1] is reported as 4.36.

For the compound `C#CCOc1ccccc1C1CC(c2csc(C3(C(=O)OC)CCN(C(=O)Cn4nc(C(F)(F)F)cc4C)CC3)n2)=NO1` (centres unmarked) [Example I-72], the “Log P[a]” value is reported as 3.71.

Regarding `C#CCOc1ccc(F)c(F)c1C1CC(c2csc(C3(C(=O)OC(C)C)CCN(C(=O)Cn4nc(C(F)F)cc4C(F)F)CC3)n2)=NO1` (centres unmarked) [Example I-34], the “Log P[a]” value was found to be 4.09.

As for `COCCOC(=O)C1(C#N)CCN(C(=O)Cn2nc(C(F)F)cc2C(F)F)CC1` [IV-2], the “Log P[a]” value is 2.32.

Turning to `C#CCOc1ccccc1C1CC(c2csc(C3(C(=O)OCc4ccccc4)CCN(C(=O)Cn4nc(C(F)F)cc4C(F)F)CC3)n2)=NO1` (centres unmarked) [Example I-39], the “Log P[a]” value came to 4.34.

For the compound `C#CCOc1ccccc1C1CC(c2csc(C3(C(=O)OC)CCN(C(=O)Cn4nc(C(F)F)cc4C(F)F)CC3)n2)=NO1` (centres unmarked) [Example I-4], the “Log P[a]” value worked out at 3.61.

Turning to `COC(=O)C1(c2nc(C3=NOC(c4c(Cl)cccc4OS(C)(=O)=O)C3)cs2)CCN(C(=O)Nc2cn(C(F)F)nc2C)CC1` (centres unmarked) [Example I-13], the “Log P[a]” value is 2.86.

`N#Cc1cccc(NC(=O)N2CCC(C#N)(C(=O)O)CC2)c1` [IV-31]: the “Log P[a]” value is reported as 1.29.

With `N#CC1(C(=O)O)CCN(C(=O)Nc2ccccc2)CC1` [IV-21], the “Log P[a]” value amounted to 1.16.

As to `COC(=O)C1(C(N)=S)CCN(C(=O)Nc2cc(C(F)F)ccc2C(F)F)CC1` [II-13], the “Log P[a]” value is 2.23.

`CCCCNC(=O)C1(C#N)CCN(C(=O)Nc2ccccc2)CC1` [IV-48]: the “Log P[a]” value worked out at 2.20.

In the case of `COC(=O)C1(c2nc(C3=NOC(c4c(Cl)cccc4OS(C)(=O)=O)C3)cs2)CCN(C(=O)Cn2nc(C(F)(F)F)cc2C)CC1` (centres unmarked) [Example I-67], the “Log P[a]” value was 3.55.

As to `C#CCOc1ccc(F)c(F)c1C1CC(c2csc(C3(C(=O)OC)CCN(C(=O)Nc4cn(C(F)F)nc4C)CC3)n2)=NO1` (centres unmarked) [Example I-18], the “Log P[a]” value stood at 3.04.

As to `C#CCOc1ccccc1C1CC(c2csc(C3(C(=O)OC)CCN(C(=O)Cn4nc(C(F)F)cc4C)CC3)n2)=NO1` (centres unmarked) [Example I-65], the “Log P[a]” value stood at 3.33.

Regarding `COC(=O)C1(c2nc(C3=NOC(c4c(F)cccc4F)C3)cs2)CCN(C(=O)Cn2nc(C)cc2C(F)F)CC1` (centres unmarked) [Example I-75], the “Log P[a]” value is listed as 3.11.

On to `N#CC1(C(=O)O)CCN(C(=S)Nc2cccc(Cl)c2)CC1` [IV-32], for which the “Log P[a]” value amounted to 2.01.

With `CSCCOC(=O)C1(C#N)CCN(C(=O)Cn2nc(C(F)F)cc2C(F)F)CC1` [IV-3], the “Log P[a]” value is 2.78.

For `COC(=O)C1(C(N)=S)CCN(C(=O)Nc2cn(C(F)F)nc2C)CC1` [II-14], the “Log P[a]” value was found to be 1.30.

`C#CCOc1ccccc1C1CC(c2csc(C3(C(=O)OCCSC)CCN(C(=O)Cn4nc(C(F)F)cc4C(F)F)CC3)n2)=NO1` (centres unmarked) [Example I-51]: the “Log P[a]” value was 4.01.

For the compound `COC(=O)C1(C#N)CCN(C(=O)Nc2cc(C(F)F)ccc2C(F)F)CC1` [IV-16], the “Log P[a]” value is recorded as 2.47.

As for `CCC(C)NC(=O)C1(C#N)CCN(C(=S)Nc2cccc(Cl)c2)CC1` (centres unmarked) [IV-35], the “Log P[a]” value amounted to 2.69.

For `CSCCOC(=O)C1(c2nc(C3=NOC(c4c(F)cccc4F)C3)cs2)CCN(C(=O)Cn2nc(C(F)F)cc2C(F)F)CC1` (centres unmarked) [Example I-49], the “Log P[a]” value was 3.87.

On to `CC(C)(C)OC(=O)C1(C#N)CCN(C(=S)Nc2cccc(Cl)c2)CC1` [IV-26], for which the “Log P[a]” value is 3.72.

On to `COC(=O)C1(c2nc(C3=NOC(c4c(Cl)cccc4OS(C)(=O)=O)C3)cs2)CCN(C(=O)Cn2nc(C)cc2C(F)F)CC1` (centres unmarked) [Example I-74], for which the “Log P[a]” value is recorded as 3.15.

As for `C#CCOc1ccc(F)c(F)c1C1CC(c2csc(C3(C(=O)OCC)CCN(C(=O)Cn4nc(C(F)F)cc4C(F)F)CC3)n2)=NO1` (centres unmarked) [Example I-28], the “Log P[a]” value is 3.85.

In the case of `C#CCOc1ccc(F)c(F)c1C1CC(c2csc(C3(C(=O)OC)CCN(C(=O)Nc4cn(C)nc4C(F)F)CC3)n2)=NO1` (centres unmarked) [Example I-21], the “Log P[a]” value is recorded as 2.88.

As to `Cc1cc(C(F)F)nn1CC(=O)N1CCC(C#N)(C(=O)O)CC1` [IV-8], the “Log P[a]” value amounted to 1.10.

For `CCOC(=O)C1(c2nc(C3=NOC(c4c(Cl)cccc4OS(C)(=O)=O)C3)cs2)CCN(C(=O)Cn2nc(C(F)F)cc2C(F)F)CC1` (centres unmarked) [Example I-22], the “Log P[a]” value came out at 3.71.

For the compound `C#CCOC(=O)C1(C#N)CCN(C(=O)Cn2nc(C(F)F)cc2C(F)F)CC1` [IV-4], the “Log P[a]” value turned out to be 2.52.

Turning to `COC(=O)C1(c2nc(C3=NOC(c4c(Cl)cccc4OS(C)(=O)=O)C3)cs2)CCN(C(=O)Cn2nc(C(F)F)cc2C(F)F)CC1` (centres unmarked) [Example I-6], under setting [1], the “Log P[a]” value stood at 3.44.

Regarding `C#CCOc1ccccc1C1CC(c2csc(C3(C(=O)OC)CCN(C(=O)Nc4cc(C(F)F)nn4C)CC3)n2)=NO1` (centres unmarked) [Example I-15], the “Log P[a]” value turned out to be 3.00.

As for `C=CCOC(=O)C1(c2nc(C3=NOC(c4ccccc4)C3)cs2)CCN(C(=O)Cn2nc(C(F)F)cc2C(F)F)CC1` (centres unmarked) [Example I-44], the “Log P[a]” value is recorded as 3.85.

For the compound `COC(=O)C1(C(N)=S)CCN(C(=O)Cn2nc(C(F)(F)F)cc2C)CC1` [II-6], the “Log P[a]” value turned out to be 2.08.
